Patent publication US20250147039A1, “Compounds for complexation of rare earth elements and/or s-, p-, d- block metals, their coordination compounds, peptide conjugates, method of their preparation and use thereof” (USTAV ORGANICKE CHEMIE A BIOCHEMIE AV CR V.V.I., priority 2021, published 2025)

Assays:
Assay type in all cases: physicochemical
[1] = pH dependent formation of 1,5- and 1,4-cz-Lig isomers from Lig (pH dependent click-zip) (Chart 13); details: B: 1 day at 80° C.
[2] = Formation of 1,5-cz-[M(Lig)] from Lig and M^II ions (metal dependent click-zip) (Charts 6, 7); details: MOPS/NaOH buffer pH 7.0; for conversion to 1,5-cz-[M(Lig)], Ca^II / conversion to 1,5-cz-[M(Lig)], Cd^II / conversion to 1,5-cz-[M(Lig)], Pb^II: TD728 in 50% i-PrOH
[3] = Formation of 1,5-cz-[M(Lig)] from Lig and M^III ions (metal dependent click-zip) (Charts 4, 5); details: for conversion to 1,5-cz-[M(Lig)], Bi^III: 4% DMSO in MOPS/NaOH buffer pH 7.0, TD728 in 50% i-PrOH; for conversion to 1,5-cz-[M(Lig)], Ga^III / conversion to 1,5-cz-[M(Lig)], In^III / conversion to 1,5-cz-[M(Lig)], Sc^III / conversion to 1,5-cz-[M(Lig)], Y^III: MOPS/NaOH buffer pH 7.0; for conversion to 1,5-cz-[M(Lig)], Sc^III / conversion to 1,5-cz-[M(Lig)], Y^III: TD728, TD827 in 50% i-PrOH; for conversion to 1,5-cz-[M(Lig)], Y^III: TD714 sum of two diastereoisomers
[4] = Alkali metal dependent formation of 1,5-cz-Lig and 1,4-cz-Lig isomers from Lig at pH 10.2 (Chart 14); details: Borate/(M^I)2CO3 buffer pH 10.2
[5] = B: 1 day at 80° C., visible analyte free precipitate

C#Cc1cccc(CN2CCN(CC(=O)O)CCN(Cc3cc(-c4ccccc4)cc(CN=[N+]=[N-])n3)CCN(CC(=O)O)CC2)n1 [TD647]
conversion to 1,4-cz-Lig isomer ([1]; 0.1M HClO4 (pH ~1)): 5%
conversion to 1,5-cz-Lig isomer ([1]; 0.1M HClO4 (pH ~1)): 91%
conversion to 1,4-cz-Lig isomer ([1]; 1.0M HClO4 (pH ~0)): 8%
conversion to 1,5-cz-Lig isomer ([1]; 1.0M HClO4 (pH ~0)): 72%
conversion to 1,4-cz-Lig isomer ([1]; pH 2.2, 50 mM aq. buffer): 6%
conversion to 1,5-cz-Lig isomer ([1]; pH 2.2, 50 mM aq. buffer): 88%
conversion to 1,4-cz-Lig isomer ([1]; pH 3.0, 50 mM aq. buffer): 6%
conversion to 1,5-cz-Lig isomer ([1]; pH 3.0, 50 mM aq. buffer): 69%
conversion to 1,4-cz-Lig isomer ([1]; pH 3.8, 50 mM aq. buffer): 6%
conversion to 1,5-cz-Lig isomer ([1]; pH 3.8, 50 mM aq. buffer): 22%
conversion to 1,4-cz-Lig isomer ([1]; pH 4.6, 50 mM aq. buffer): 5%
conversion to 1,5-cz-Lig isomer ([1]; pH 4.6, 50 mM aq. buffer): 13%
conversion to 1,4-cz-Lig isomer ([1]; pH 5.4, 50 mM aq. buffer): 6%
conversion to 1,5-cz-Lig isomer ([1]; pH 5.4, 50 mM aq. buffer): 12%
conversion to 1,4-cz-Lig isomer ([1]; pH 6.2, 50 mM aq. buffer): 12%
conversion to 1,5-cz-Lig isomer ([1]; pH 6.2, 50 mM aq. buffer): 11%
conversion to 1,4-cz-Lig isomer ([1]; pH 7.0, 50 mM aq. buffer): 23%
conversion to 1,5-cz-Lig isomer ([1]; pH 7.0, 50 mM aq. buffer): 19%
conversion to 1,4-cz-Lig isomer ([1]; pH 8.6, 50 mM aq. buffer): 32%
conversion to 1,5-cz-Lig isomer ([1]; pH 8.6, 50 mM aq. buffer): 26%
conversion to 1,4-cz-Lig isomer ([1]; pH 9.4, 50 mM aq. buffer): 17%
conversion to 1,5-cz-Lig isomer ([1]; pH 9.4, 50 mM aq. buffer): 60%
conversion to 1,4-cz-Lig isomer ([1]; pH 10.2, 50 mM aq. buffer): 5%
conversion to 1,5-cz-Lig isomer ([1]; pH 10.2, 50 mM aq. buffer): 80%
conversion to 1,5-cz-[M(Lig)], Ba^II ([2]; 1 week at 80° C.): 0%
conversion to 1,5-cz-[M(Lig)], Ni^II ([2]; 1 week at 80° C.): 0%
conversion to 1,5-cz-[M(Lig)], Sr^II ([2]; 1 week at 80° C.): 0%
conversion to 1,5-cz-[M(Lig)], Zn^II ([2]; 1 week at 80° C.): 0%
conversion to 1,5-cz-[M(Lig)], Ca^II ([2]; 1 week at 80° C.): 87%
conversion to 1,5-cz-[M(Lig)], Cd^II ([2]; 1 week at 80° C.): 86%
conversion to 1,5-cz-[M(Lig)], Pb^II ([2]; 1 week at 80° C.): 54%
conversion to 1,5-cz-[M(Lig)], Ba^II ([2]; 1 hour at 80° C.): 0%
conversion to 1,5-cz-[M(Lig)], Ni^II ([2]; 1 hour at 80° C.): 0%
conversion to 1,5-cz-[M(Lig)], Sr^II ([2]; 1 hour at 80° C.): 0%
conversion to 1,5-cz-[M(Lig)], Zn^II ([2]; 1 hour at 80° C.): 0%
conversion to 1,5-cz-[M(Lig)], Ca^II ([2]; 1 hour at 80° C.): 16%
conversion to 1,5-cz-[M(Lig)], Pb^II ([2]; 1 hour at 80° C.): 2%
conversion to 1,5-cz-[M(Lig)], Cd^II ([2]; 1 hour at 80° C., TD714 sum of two diastereoisomers): 64%
conversion to 1,5-cz-[M(Lig)], Bi^III ([3]; 1 week at 80° C.): 73%
conversion to 1,5-cz-[M(Lig)], Ga^III ([3]; 1 week at 80° C.): 0%
conversion to 1,5-cz-[M(Lig)], In^III ([3]; 1 week at 80° C.): 8%
conversion to 1,5-cz-[M(Lig)], Sc^III ([3]; 1 week at 80° C.): 35%
conversion to 1,5-cz-[M(Lig)], Y^III ([3]; 1 week at 80° C.): 93%
conversion to 1,5-cz-[M(Lig)], Bi^III ([3]; 1 hour at 80° C.): 29%
conversion to 1,5-cz-[M(Lig)], Ga^III ([3]; 1 hour at 80° C.): 0%
conversion to 1,5-cz-[M(Lig)], In^III ([3]; 1 hour at 80° C.): 0%
conversion to 1,5-cz-[M(Lig)], Sc^III ([3]; 1 hour at 80° C.): 7%
conversion to 1,5-cz-[M(Lig)], Y^III ([3]; 1 hour at 80° C.): 20%
conversion to 1,4-cz-Lig isomer, Cs^I ([4]; A: 1 hour at 80° C.): 2%
conversion to 1,4-cz-Lig isomer, K^I ([4]; A: 1 hour at 80° C.): 2%
conversion to 1,4-cz-Lig isomer, Li^I ([4]; A: 1 hour at 80° C.): 0%
conversion to 1,4-cz-Lig isomer, Na^I ([4]; A: 1 hour at 80° C.): 1%
conversion to 1,4-cz-Lig isomer, Rb^I ([4]; A: 1 hour at 80° C.): 2%
conversion to 1,5-cz-Lig isomer, Cs^I ([4]; A: 1 hour at 80° C.): 0%
conversion to 1,5-cz-Lig isomer, K^I ([4]; A: 1 hour at 80° C.): 1%
conversion to 1,5-cz-Lig isomer, Li^I ([4]; A: 1 hour at 80° C.): 0%
conversion to 1,5-cz-Lig isomer, Na^I ([4]; A: 1 hour at 80° C.): 15%
conversion to 1,5-cz-Lig isomer, Rb^I ([4]; A: 1 hour at 80° C.): 0%
conversion to 1,4-cz-Lig isomer, Cs^I ([4]; B: 1 day at 80° C.): 39%
conversion to 1,4-cz-Lig isomer, K^I ([4]; B: 1 day at 80° C.): 40%
conversion to 1,4-cz-Lig isomer, Na^I ([4]; B: 1 day at 80° C.): 1%
conversion to 1,4-cz-Lig isomer, Rb^I ([4]; B: 1 day at 80° C.): 41%
conversion to 1,5-cz-Lig isomer, Cs^I ([4]; B: 1 day at 80° C.): 7%
conversion to 1,5-cz-Lig isomer, K^I ([4]; B: 1 day at 80° C.): 10%
conversion to 1,5-cz-Lig isomer, Na^I ([4]; B: 1 day at 80° C.): 85%
conversion to 1,5-cz-Lig isomer, Rb^I ([4]; B: 1 day at 80° C.): 6%
conversion to 1,4-cz-Lig isomer, Li^I [4, 5]: 2%
conversion to 1,5-cz-Lig isomer, Li^I [4, 5]: 9%
